Measurements taken from patent US20260130901A1, “CGRP RECEPTOR ANTAGONIST FOR THE TREATMENT OF MIGRAINE” (ALLERGAN PHARMACEUTICALS INTERNATIONAL LIMITED, priority 2022, published 2026).

Columns and labels:
Format in all cases: in vivo, human
[1] = tested on: participants with migraine (qualifying prodrome events); assay: Phase 3 crossover study: absence of headache after treatment during the prodrome
Method: (§1) A phase 3, multicenter, randomized, double-blind, placebo-controlled, crossover study was carried out to evaluate the efficacy, safety, and tolerability of oral ubrogepant in the acute treatment of migraine when administered during the prodrome. The study evaluated whether treatment during the initial phase of a migraine attack (i.e., the prodrome or premonitory phase) prior to the onset of headache, can attenuate the severity of the headache phase and reduce disability.
Eligible participants were able to treat two qualifying prodrome events, defined as a migraine attack with prodromal symptoms in which the participant was confident a headache would follow within 1-6 hours.
The primary endpoint was absence of moderate or severe intensity headache within 24 hours post-dose. Secondary endpoints were absence of moderate/severe intensity headache within 48 hours, ability to function normally over 24 hours, and absence of headache of any intensity within 24 hours post-dose.
The trial enrolled adults with 2-8 migraine attacks per month who stated that they could identify migraine attacks with prodromal symptoms reliably followed by headache. Using an e-diary, participants reported qualifying events, defined as a migraine attack with prodromal symptoms in which the participant was confident a headache would follow within 1-6 hours.
(§2) Eligible participants were randomized (1:1) to treatment sequences A or B in this crossover study. Participants randomized to Treatment Sequence A received placebo to treat their first qualifying prodrome event and ubrogepant 100 mg to treat their second qualifying prodrome event. For those randomized to Treatment Sequence B, they received the reverse: ubrogepant 100 mg to treat their first qualifying prodrome event and placebo to treat their second qualifying prodrome event.
The primary efficacy endpoint was the absence of a headache of moderate/severe intensity within 24 hours after taking double-blind study intervention during the prodrome. The secondary efficacy endpoints were the absence of a headache of moderate or severe intensity within 48 hours, ability to function normally over 24 hours, and absence of a headache of any intensity within 24 hours after taking double blind study interventions during the prodrome.
The overall study design is illustrated in FIG. 1. […] After meeting eligibility criteria, randomized participants were to treat two qualifying prodrome events with study intervention during the double-blind treatment period (between Visit 2 and Visit 4) (up to 60 days), separated by a clinic visit (visit 3) to ensure a minimum 7-day washout period. A post-treatment visit (visit 4) followed four days after the last treatment was taken.
To be eligible for study participation, participants must be 18 to 75 years of age (inclusive) at Visit 1, have at least a 1-year history of migraine with or without aura consistent with diagnosis according to the ICHD-3 (2018), and experience 2 to 8 migraine attacks with moderate to severe headache per month by history in each of the 3 months prior to screening. At the screening visit, participants were asked whether they could identify prodromal symptoms followed by migraine headache within 1 to 6 hours at least 75% of the time. […] After the screening period, to be eligible for randomization, the participant needed to record 3 to 16 qualifying prodrome events with at least 75% of these events followed by a headache, of any intensity, within 1 to 6 hours.
Participants were excluded if they had difficulty distinguishing migraine from tension-type or other headache types, or if they had chronic migraine, a trigeminal autonomic cephalalgia, or a painful cranial neuropathy. Participants who overused medication for migraine or had previous exposure to an injectable anti-CGRP monoclonal antibody within the previous 3 months were also excluded.
Participant flow is illustrated in FIG. 2. […]

[2] = tested on: participants with migraine (qualifying prodrome events); assay: Phase 3 crossover study: satisfaction with study medication; conditions: 100 mg in prodrome
Method: as §1, §2

[3] = tested on: participants with migraine (qualifying prodrome events); assay: Phase 3 crossover study: activity limitation at 24 hours; conditions: 100 mg in prodrome, at 24 hours post-dose
Method: as §1, §2

[4] = 100 mg in prodrome, within 1 hour, mITT, observed cases
[5] = 100 mg in prodrome, within 2 hours, mITT, observed cases
[6] = 100 mg in prodrome, within 3 hours, mITT, observed cases
[7] = 100 mg in prodrome, within 4 hours, mITT, observed cases
[8] = 100 mg in prodrome, within 6 hours, mITT, observed cases
[9] = 100 mg in prodrome, within 8 hours, mITT, observed cases
[10] = 100 mg in prodrome, within 24 hours, mITT, observed cases
[11] = 100 mg in prodrome, within 24 hours, mITT, observed cases (primary analysis)
[12] = 100 mg in prodrome, within 24 hours, sensitivity analysis: Period 1 data only
[13] = 100 mg in prodrome, within 24 hours, sensitivity analysis: non-responder imputation
[14] = 100 mg in prodrome, within 24 hours, sensitivity analysis: testing carryover effect
[15] = 100 mg in prodrome, within 48 hours, mITT, observed cases

C[C@@H]1[C@H](c2ccccc2)C[C@H](NC(=O)c2cnc3c(c2)C[C@@]2(C3)C(=O)Nc3ncccc32)C(=O)N1CC(F)(F)F [Ubrogepant, (3′S)—N-((3S,5S,6R)-6-methyl-2-oxo-5-phenyl-1-(2,2,2-trifluoroethyl)piperidin-3-yl)-2′-oxo-1′,2′,5,7-tetrahydrospiro[cyclopenta[b]pyridine-6,3′-pyrrolo[2,3-b]pyridine]-3-carboxamide]
Absence of a headache of any intensity, Nonresponder (%) [1, 4]: (42.9) % | Absence of a headache of any intensity, Odds Ratio vs. Placebo [1, 4]: 1.19 | Absence of a headache of any intensity, Responder (%) [1, 4]: (57.1) % | Absence of a headache of moderate/severe intensity, Nonresponder (%) [1, 4]: (22.9) % | Absence of a headache of moderate/severe intensity, Odds Ratio vs. Placebo [1, 4]: 1.30 | Absence of a headache of moderate/severe intensity, Responder (%) [1, 4]: (77.1) % | Absence of a headache of severe intensity, Nonresponder (%) [1, 4]: (4.0) % | Absence of a headache of severe intensity, Odds Ratio vs. Placebo [1, 4]: 1.21 | Absence of a headache of severe intensity, Responder (%) [1, 4]: (96.0) % | Absence of a headache of any intensity, Nonresponder (%) [1, 5]: (55.7) % | Absence of a headache of any intensity, Odds Ratio vs. Placebo [1, 5]: 1.34 | Absence of a headache of any intensity, Responder (%) [1, 5]: (44.3) % | Absence of a headache of moderate/severe intensity, Nonresponder (%) [1, 5]: (35.4) % | Absence of a headache of moderate/severe intensity, Odds Ratio vs. Placebo [1, 5]: 1.31 | Absence of a headache of moderate/severe intensity, Responder (%) [1, 5]: (64.6) % | Absence of a headache of severe intensity, Nonresponder (%) [1, 5]: (7.4) % | Absence of a headache of severe intensity, Odds Ratio vs. Placebo [1, 5]: 1.33 | Absence of a headache of severe intensity, Responder (%) [1, 5]: (92.6) % | Absence of a headache of any intensity, Nonresponder (%) [1, 6]: (62.5) % | Absence of a headache of any intensity, Odds Ratio vs. Placebo [1, 6]: 1.60 | Absence of a headache of any intensity, Responder (%) [1, 6]: (37.5) % | Absence of a headache of moderate/severe intensity, Nonresponder (%) [1, 6]: (39.9) % | Absence of a headache of moderate/severe intensity, Odds Ratio vs. Placebo [1, 6]: 1.71 | Absence of a headache of moderate/severe intensity, Responder (%) [1, 6]: (60.1) % | Absence of a headache of severe intensity, Nonresponder (%) [1, 6]: (9.4) % | Absence of a headache of severe intensity, Odds Ratio vs. Placebo [1, 6]: 1.41 | Absence of a headache of severe intensity, Responder (%) [1, 6]: (90.6) % | Absence of a headache of any intensity, Nonresponder (%) [1, 7]: (67.3) % | Absence of a headache of any intensity, Odds Ratio (95% CI) vs. Placebo [1, 7]: 1.76 (1.35, 2.30) | Absence of a headache of any intensity, Responder (%) [1, 7]: (32.7) % | Absence of a headache of moderate/severe intensity, Nonresponder (%) [1, 7]: (41.5) % | Absence of a headache of moderate/severe intensity, Odds Ratio vs. Placebo [1, 7]: 1.91 | Absence of a headache of moderate/severe intensity, Responder (%) [1, 7]: (58.5) % | Absence of a headache of severe intensity, Nonresponder (%) [1, 7]: (10.5) % | Absence of a headache of severe intensity, Odds Ratio vs. Placebo [1, 7]: 1.70 | Absence of a headache of severe intensity, Responder (%) [1, 7]: (89.5) % | Absence of a headache of any intensity, Nonresponder (%) [1, 8]: (71.0) % | Absence of a headache of any intensity, Odds Ratio vs. Placebo [1, 8]: 1.79 | Absence of a headache of any intensity, Responder (%) [1, 8]: (29.0) % | Absence of a headache of moderate/severe intensity, Nonresponder (%) [1, 8]: (46.6) % | Absence of a headache of moderate/severe intensity, Odds Ratio vs. Placebo [1, 8]: 1.86 | Absence of a headache of moderate/severe intensity, Responder (%) [1, 8]: (53.4) % | Absence of a headache of severe intensity, Nonresponder (%) [1, 8]: (12.5) % | Absence of a headache of severe intensity, Odds Ratio vs. Placebo [1, 8]: 1.77 | Absence of a headache of severe intensity, Responder (%) [1, 8]: (87.5) % | Absence of a headache of any intensity, Nonresponder (%) [1, 9]: (72.5) % | Absence of a headache of any intensity, Odds Ratio vs. Placebo [1, 9]: 1.85 | Absence of a headache of any intensity, Responder (%) [1, 9]: (27.5) % | Absence of a headache of moderate/severe intensity, Nonresponder (%) [1, 9]: (48.2) % | Absence of a headache of moderate/severe intensity, Odds Ratio vs. Placebo [1, 9]: 2.01 | Absence of a headache of moderate/severe intensity, Responder (%) [1, 9]: (51.8) % | Absence of a headache of severe intensity, Nonresponder (%) [1, 9]: (13.1) % | Absence of a headache of severe intensity, Odds Ratio vs. Placebo [1, 9]: 1.89 | Absence of a headache of severe intensity, Responder (%) [1, 9]: (86.9) % | Absence of a headache of any intensity, Nonresponder (%) [1, 10]: (76.3) % | Absence of a headache of any intensity, Odds Ratio vs. Placebo [1, 10]: 1.93 | Absence of a headache of any intensity, Responder (%) [1, 10]: (23.7) % | Absence of a headache of severe intensity, Nonresponder (%) [1, 10]: (14.5) % | Absence of a headache of severe intensity, Odds Ratio vs. Placebo [1, 10]: 1.83 | Absence of a headache of severe intensity, Responder (%) [1, 10]: (85.5) % | Absence of a headache of moderate/severe intensity, Nonresponder (%) [1, 11]: (54.5) % | Absence of a headache of moderate/severe intensity, Odds Ratio vs. Placebo [1, 11]: 2.09 | Absence of a headache of moderate/severe intensity, Responder (%) [1, 11]: (45.5) % | Absence of a headache of moderate/severe intensity, Responder (%) ([1]; 100 mg in prodrome, within 24 hours, mITT, observed cases (primary analysis), listed as ubrogepant): 45.5% | Absence of a headache of any intensity, Responder (%) ([1]; 100 mg in prodrome, within 24 hours, mITT, observed cases, listed as ubrogepant): 23.7% | Absence of a headache of moderate/severe intensity, Nonresponder (%) [1, 12]: (52.6) % | Absence of a headache of moderate/severe intensity, Odds Ratio vs. Placebo [1, 12]: 2.11 | Absence of a headache of moderate/severe intensity, Responder (%) [1, 12]: (47.4) % | Absence of a headache of moderate/severe intensity, Nonresponder (%) [1, 13]: (57.6) % | Absence of a headache of moderate/severe intensity, Odds Ratio vs. Placebo [1, 13]: 2.01 | Absence of a headache of moderate/severe intensity, Responder (%) [1, 13]: (42.4) % | Absence of a headache of moderate/severe intensity, Nonresponder (%) [1, 14]: (54.5) % | Absence of a headache of moderate/severe intensity, Odds Ratio vs. Placebo [1, 14]: 2.09 | Absence of a headache of moderate/severe intensity, Responder (%) [1, 14]: (45.5) % | Absence of a headache of any intensity, Nonresponder (%) [1, 15]: (81.4) % | Absence of a headache of any intensity, Odds Ratio vs. Placebo [1, 15]: 1.90 | Absence of a headache of any intensity, Responder (%) [1, 15]: (18.6) % | Absence of a headache of moderate/severe intensity, Nonresponder (%) [1, 15]: (59.3) % | Absence of a headache of moderate/severe intensity, Odds Ratio vs. Placebo [1, 15]: 2.13 | Absence of a headache of moderate/severe intensity, Responder (%) [1, 15]: (40.7) % | Absence of a headache of severe intensity, Nonresponder (%) [1, 15]: (17.4) % | Absence of a headache of severe intensity, Odds Ratio vs. Placebo [1, 15]: 1.71 | Absence of a headache of severe intensity, Responder (%) [1, 15]: (82.6) % | Absence of a headache of moderate/severe intensity, Responder (%) ([1]; 100 mg in prodrome, within 48 hours, mITT, observed cases, listed as ubrogepant): 40.7% | Reducing the development of moderate/severe headache within 24 and 48 hours and of headache of any intensity within 24 hours ([1]; administered during the prodrome): superior to placebo | Satisfaction with study medication, Odds ratio vs placebo ([2]; 8 Hours post-dose): 2.37 | Satisfaction with study medication, responder rate (%) (satisfied or extremely satisfied) ([2]; 8 Hours post-dose): (66.0) % | Satisfaction with study medication, Odds ratio vs placebo ([2]; 24 Hours post-dose): 2.32 | Satisfaction with study medication, responder rate (%) (satisfied or extremely satisfied) ([2]; 24 Hours post-dose): (65.6) % | Satisfaction with study medication, responder rate (%) (satisfied or extremely satisfied) ([2]; 24 Hours post-dose, listed as ubrogepant): 65.6% | Activity limitation, Odds ratio vs placebo [3]: 2.07 | Activity limitation, Responders (%) (not at all limited or a little limited) [3]: (65.4) % | Activity limitation, Responders (%) (not at all limited or a little limited) ([3]; listed as ubrogepant): 65.4%
